From patent US20180264134A1, “A COMPOSITION OF GOLD NANOPARTICLES HAVING ANTIMICROBIAL PEPTIDES BOUND ON THEIR SURFACE FOR USE THE TREATMENT OF WOUND HEALING OR IN THE TREATMENT OF ISCHEMIC OR VASCULAR DISEASES OR IN THE TREATMENT OF SKIN DISORDERS” (priority 2015, published 2018)
Where “and” joins values, the source holds several entries; their conditions need not be identical. Equal values may be shown once.

What was measured:
HaCaT = assay: Membrane potential by DiOC5(3) flow cytometry in HaCaT; format: cell-based, human
Procedure: In an embodiment the membrane potential can be determined by: HUVEC and HaCaT cells were seeded at a density of 4×10^4 cells/cm^2 and in 24-well plates and cultured for 24 h. […] Soluble LL37 were also used in the concentration of 0.5, 1, 10, 30, 60 μg/mL. After 5 and 48 h, cells were harvested, resuspended in medium with 5 nM of DiOC5(3) (Sigma-Aldrich) and incubated for 5 min at room temperature in the dark, prior to the analysis with the flow cytometer (FACSCalibur, BD Biosciences). Cells treated with gramicidin (10 μM) or valinomycin (10 μM) were used as controls for cell depolarization and hyperpolarization, respectively.

HUVECs = assay: VEGF secretion in HUVECs (ELISA); format: cell-based, human; settings: 24 h, LL37 5 μg/mL, NPs 200 μg/mL
Procedure: In an embodiment measurement of VEGF amount in HUVECs can be perform by the following method: HUVECs were seeded at a density of 4×10^4 cells/cm^2 in 24-well plates and cultured for 24 h in EGM-2 without VEGF. LL-37 (5 μg/mL), LL37 AUNPs and AuNPs (200 μg/mL) suspended in culture medium without VEGF at different concentrations were added to cells. LL-37 (5 μg/mL) and LL-37 AUNPs (200 μg/mL) were also incubated in the presence of 10 μM of FPRL1 Antagonist. After 24 h of incubation, cell media from all the conditions were collected and used to quantify VEGF amount in supernatants. In order to calculate the amount of VEGF in supernatants, Human VEGF ELISA development Kit (PeproTech) was used according to the manufacture's instructions. A calibration curve was used for the ranging between 0-1000 pg/mL VEGF.

ERK1/2 = ERK1/2 phosphorylation in HaCaT (ELISA); format: cell-based, human; settings: LL37 5 μg/mL; LL37-Au NPs 200 μg/mL
Procedure: In an embodiment the detection of EGFR and ERK1/2 phosphorylation, can be perform by: the activation of EGFR receptor in HaCaT (80% confluency, in 6-well plates) was induced by starving the cells for 24 h in DMEM supplemented with 1% (v/v) penicillin and adding soluble LL37, LL37-Au NPs and Au NPs for a given period of time. Following treatment, the plates were immersed in ice and the medium was discarded. Then the proteins were isolated from the cells . . . . The levels of EGFR (phosphorylated EGFR and total EGFR) were determined by ELISA kit (R&D Systems). The activation of ERK signaling pathways in HaCaT (80% confluency, in one 96-well cell culture clear-bottom black microplate) were obtained starving the cells for 24 h in DMEM supplemented with 1% (v/v) penicillin and then stimulating them with soluble LL37 (5 μg/mL), LL37-Au NPs and Au NPs (200 μg/mL). After treatments the level of ERK were determined using a phosphoprotein and total protein ELISA kit (R&D Systems ref. KCB1018) according to the manufacture's instructions. Data were acquired with a BioTek synergy MX microplate reader.

[1] = test system: full-thickness excisional wounds; assay: In vivo wound healing, splinted mouse full thickness excisional model; set-up: species or system RjHan:NMRI female mice
Source text: For measure some parameters In vivo wound healing and tissue collection can be use. 6-7 week old RjHan:NMRI female mice (Janvier, BE) were anesthesized with isoflurane and the dorsal area was shaved using a depilatory cream a day before the surgery. Two 0.5-mm-thick silicone (Grace biolabs, UK) donut-shaped splints (OD=20 mm, ID=10 mm) were fixed on either side of the dorsal midline, approximately 3.5 cm from the ears and positioned with 6-0 nylon sutures (Monosof, USA). Full-thickness excisional wounds were made using an 8 mm round skin biopsy punch (Kai Europe GMBH, DE), centered within each splint. […] Wound areas were quantified using the Jmicro Vision software developed by N. Roduit at University of Geneva, Switzerland. Wound sizes are expressed as percentage of the initial respective wound. […]
In an embodiment, histology and immunohistochemistry assay were conducted: the wound halves were immediately fixed with paraformaldehyde (4% in PBS, 0.01 M, pH 7.4) and after 24 h, the samples were transferred to PBS buffer at 4° C. […] A semi-quantitative estimation of MT green staining was performed using FRIDA software (developed by Johns Hopkins University, USA) and the staining values were expressed as staining per unit area. […]

## CC[C@H](C)[C@H](NC(=O)[C@H](CCCCN)NC(=O)[C@H](CCC(=O)O)NC(=O)[C@H](CCCCN)NC(=O)[C@H](CO)NC(=O)[C@H](CCCCN)NC(=O)[C@H](CCCNC(=N)N)NC(=O)[C@H](Cc1ccccc1)NC(=O)[C@H](Cc1ccccc1)NC(=O)[C@H](CC(=O)O)NC(=O)CNC(=O)[C@H](CC(C)C)NC(=O)[C@@H](N)CC(C)C)C(=O)NCC(=O)N[C@@H](CCCCN)C(=O)N[C@@H](CCC(=O)O)C(=O)N[C@@H](Cc1ccccc1)C(=O)N[C@@H](CCCCN)C(=O)N[C@@H](CCCNC(=N)N)C(=O)N[C@H](C(=O)N[C@H](C(=O)N[C@@H](CCC(N)=O)C(=O)N[C@@H](CCCNC(=N)N)C(=O)N[C@H](C(=O)N[C@@H](CCCCN)C(=O)N[C@@H](CC(=O)O)C(=O)N[C@@H](Cc1ccccc1)C(=O)N[C@@H](CC(C)C)C(=O)N[C@@H](CCCNC(=N)N)C(=O)N[C@@H](CC(N)=O)C(=O)N[C@@H](CC(C)C)C(=O)N[C@H](C(=O)N1CCC[C@H]1C(=O)N[C@@H](CCCNC(=N)N)C(=O)N[C@H](C(=O)N[C@@H](CCC(=O)O)C(=O)N[C@@H](CO)C(=O)N[C@@H](CS)C(N)=O)[C@@H](C)O)C(C)C)[C@@H](C)CC)C(C)C)[C@@H](C)CC [LL37]
HaCaT; 5 h of contact
  membrane potential of keratinocytes: hyperpolarized
HaCaT; 48 h of contact
  membrane potential of keratinocytes: not observed
HaCaT; 48 h of contact, listed as LL37 peptide
  membrane potential of keratinocytes: the effect was lost
HaCaT; NPs up to 400 μg/mL
  membrane potential of HaCaT: not altered
HaCaT; keratinocytes, 5 h exposure
  concentration causing slight hyperpolarization: above 25 μg/mL
HUVECs
  secretion of VEGF165: induce the secretion
ERK1/2
  time of peak ERK1/2 phosphorylation: 4 min
[1]; after 10 days, LL37 70 μg per wound, listed as LL37 peptide
  wound healing: 50% and 70%
[1]; day 10
  MPO activity in wound tissue: significantly decreased
